{
  "source": "patent US20170348337A1",
  "about": "“MULTIFUNCTIONAL MEMBRANE-ACTIVE AMINOGLYCOSIDE-PEPTIDE CONJUGATES” (priority 2014, published 2017)",
  "key": {"[1]": {"system": "P. acnes laboratory strain ATCC 6919", "test": "P. acnes CFU assay, laboratory strain", "format": "cell-based, Propionibacterium acnes"}, "E. coli Dh5α persisters": {"system": "E. coli Dh5α persisters", "test": "persister cell plate killing assay", "format": "cell-based, Escherichia coli", "description": "Procedure for preparing S. aureus SA113 and E. coli Dh5α persister cells were based on previous protocols. Cells from freshly streaked agar plates were inoculated in 1 mL TSB and incubated 16 h at 37° C. in a shaker incubator to obtain stationary phase cultures. Non-persister cells were eliminated by adding ampicillin to a final concentration of 100 μg/mL, followed by 3 h incubation at 37° C.\nE. coli cells were pelleted (5000 rpm for 5 min), washed in M9 minimal media and resuspended in M9 minimal media to a final bacteria stock solution of 5×10^7 CFU/mL. 20 μL E. coli suspension was introduced into 180 μL M9 media containing various concentrations of antibiotic (Pentobra, tobramycin) in 96 well plates for a total of 10^6 CFU/well. The plates were sealed with parafilm, loaded onto microplate shakers and placed in a 37° C. incubator for 1.5 h. After incubation, 10-fold serial dilutions were made with M9 media. Half of each dilution (100 μL) was spotted onto LB agar plates and incubated overnight at 37° C. to yield visible colonies. The E. coli persister assays were performed in quadruplicate.\nThe bactericidal effects of Pentobra against persistent bacteria were investigated with plate killing assays. […]"}, "[2]": {"system": "P. acnes in comedone extracts", "test": "microcomedone assay (human comedone extracts)", "format": "cell-based, Propionibacterium acnes", "conditions": "similar drug concentrations (FIG. 11C)"}, "[3]": {"system": "IL-6, IL-8, TNF-α and IL-12p40 in human monocytes", "test": "cytokine ELISA in P. acnes-activated monocytes", "format": "cell-based", "conditions": "24 hrs co-treatment", "description": "Peripheral blood mononuclear cells (PBMCs) were isolated from whole blood of normal healthy donors as approved by the Institutional Review Board at UCLA using Ficoll-Paque gradients (GE Healthcare, Piscataway, N.J.) and plated onto six-well tissue culture plates (20×10^6-30×10^6 per well) for 2 hours in RPMI 1640 medium (Invitrogen Life Technologies, Carlsbad, Calif.) supplemented with 1% fetal calf serum (Omega Scientific, Tarzana, Calif.). Nonadherent cells were removed by rigorously washing three times with RPMI. Adherent monocytes were stimulated (co-treated) with media or P. acnes in the presence of tobramycin or Pentobra in 10% fetal calf serum. P. acnes was used at an MOI of 0.5 and cells were cultured for 24 hours at 37° C.\nIL-6, IL-8, Tumor necrosis factor alpha (TNF-α) and IL-12p40 levels in culture supernatants were measured by ELISA following the manufacturer's recommendations (Invitrogen). Samples were assayed in triplicates. Results are expressed as mean±SD of at least three independent experiments, with monocytes obtained from three independent donors.\nMonocytes were cultured and evaluated for cytokine and chemokine expression by ELISA and real time PCR after 24 hrs."}, "[4]": {"conditions": "aminoglycosides; cited from earlier work"}, "[5]": {"system": "P. acnes clinical isolates", "test": "P. acnes CFU assay, clinical isolates", "format": "cell-based, Propionibacterium acnes"}, "S. aureus": {"system": "S. aureus", "test": "antimicrobial activity (MIC) of P-L-A conjugates", "format": "cell-based"}, "Klebsiella (Kleb)": {"system": "Klebsiella (Kleb)", "test": "microbe, parasite or virus in culture", "format": "cell-based", "conditions": "Klebsiella; isolate Kleb, W6921701-1; read-out: MIC", "source_text": "(§1) Pentobra was screened against a broad panel of microbial pathogens, including strains of E. coli, MRSA, Klebsiella (Kleb), Acinetobacter (AcB), Vancomycin-Sensitive Enterococci (VSE) and Vancomycin-Resistant Enterococci (VRE), and specifically including E. faecalis samples. […] The experimenter reported the minimum inhibitory concentration (MIC) in mass units per unit volume (μg/mL) for each compound, and MIC data were converted into molar concentrations (μM) due to the large difference between the molecular weight of tobramycin (467.5 g/mol) and Pentobra (2277 g/mol)."}, "MRSA": {"system": "MRSA", "test": "microbe, parasite or virus in culture", "format": "cell-based", "conditions": "isolate MRSA", "source_text": "as §1"}, "[6]": {"system": "Vancomycin-Resistant Enterococci (VRE)", "test": "microbe, parasite or virus in culture", "format": "cell-based", "conditions": "Enterococcus, read-out: MIC", "source_text": "as §1"}, "Acinetobacter (AcB)": {"system": "Acinetobacter (AcB)", "test": "microbe, parasite or virus in culture", "format": "cell-based", "conditions": "Acinetobacter; isolate AcB, PM1434; read-out: MIC", "source_text": "as §1"}, "E. coli [7]": {"system": "E. coli", "test": "microbe, parasite or virus in culture", "format": "cell-based", "conditions": "Escherichia coli", "source_text": "as §1"}, "[8]": {"system": "bioluminescent Staphylococcus aureus", "test": "in vivo murine implantation (implant infection) model", "set-up": "species or system lysEGFP mice", "conditions": "PMMA-coated titanium disks, subcutaneous; throughout 5 days; p<0.05", "description": "Methods: Survival surgery was performed in which circular orthopedic-grade titanium disks were implanted subcutaneously on the backs of 25 lysEGFP mice. Disks were coated in poly-methyl-methacrylate (PMMA) cement mixed with either Pentobra, Tobramycin, or no antibiotic (control). The disks were inoculated with 1×10^7 colony-forming units (CFU) of bioluminescent Staphylococcus aureus. Bacterial burden and neutrophil inflammation were followed via bioluminescent and fluorescent imaging, respectively, on post-operative days (POD) 0, 1, 3, and 5. Implants and surrounding tissue were subsequently removed and cultured. Statistical assessment of data was performed via ANOVA analysis."}, "E. coli [9]": {"system": "E. coli", "test": "antimicrobial activity (MIC) of P-L-A conjugates", "format": "cell-based"}},
  "note": "Like-named read-outs stand apart in the source and are kept apart here.",
  "data": [
    {"smiles": "NC[C@H]1O[C@H](O[C@H]2[C@H](O)[C@@H](O[C@H]3O[C@H](CO)[C@@H](O)[C@H](N)[C@H]3O)[C@H](N)C[C@@H]2N)[C@H](N)C[C@@H]1O", "note": "[tobramycin]", "values": [
      {"measurement": "killing activity", "setting": "[1]", "result": "not strongly bactericidal"},
      {"measurement": "reduction in CFU", "setting": "[1]; 52 μM, 3 h", "result": "less than ten"},
      {"measurement": "killing activity against persister cells", "setting": "E. coli Dh5α persisters; 1.5 h, entire range of tested concentrations", "result": "poor activity"},
      {"measurement": "activity against persisters at high concentration", "setting": "E. coli Dh5α persisters; >50 μM", "result": "ineffective"},
      {"measurement": "reduction in CFU", "setting": "[2]", "result": "less than ten"},
      {"measurement": "change in IL-6, IL-8, TNF-α and IL-12p40 cytokine production", "setting": "[3]", "result": "no significant change"},
      {"measurement": "octanol→water partition coefficient Log P", "setting": "[4]", "result": "−3.41"},
      {"measurement": "antimicrobial activity", "setting": "[5]; isolates HL063PA2, HL110PA1, HL110PA4", "result": "did not exhibit significant antimicrobial activity"},
      {"measurement": "bactericidal activity", "setting": "[5]; strain HL005PA1", "result": "strongly bactericidal"},
      {"measurement": "activity compared with Pentobra", "setting": "[5]; strains HL053PA2 and HL043PA1", "result": "significantly less active"},
      {"measurement": "MIC (μM) S. aureus (mid-log)", "setting": "S. aureus", "result": 3.12, "unit": "μM"},
      {"measurement": "MIC", "setting": "Klebsiella (Kleb)", "result": 68, "unit": "µM"},
      {"measurement": "MIC", "setting": "MRSA; Staphylococcus aureus, F2806774, read-out: MIC", "result": "> 274", "unit": "µM"},
      {"measurement": "MIC", "setting": "MRSA; H2867813", "result": ">274", "unit": "µM"},
      {"measurement": "MIC", "setting": "[6]; VRE, isolate F6541102, VRE", "result": "> 274", "unit": "µM"},
      {"measurement": "MIC", "setting": "[6]; VRE, isolate H6926031, VRE*", "result": 68, "unit": "µM"},
      {"measurement": "MIC", "setting": "[6]; VRE, isolate M6865034, VRE", "result": "> 274", "unit": "µM"},
      {"measurement": "MIC", "setting": "[6]; VRE, isolate S3899836, VRE^? (second entry)", "result": "> 274", "unit": "µM"},
      {"measurement": "MIC", "setting": "[6]; VRE, isolate VRE, 24670", "result": "> 274", "unit": "µM"},
      {"measurement": "MIC", "setting": "[6]; VRE, isolate VRE, S3899836", "result": "> 274", "unit": "µM"},
      {"measurement": "MIC", "setting": "[6]; isolate 24670, VRE^? (second entry)", "result": "> 274", "unit": "µM"},
      {"measurement": "MIC", "setting": "Acinetobacter (AcB)", "result": 34, "unit": "µM"},
      {"measurement": "MIC", "setting": "E. coli [7]; ATCC25922, isolate ATCC 25922, Ecoli (second entry), read-out: MIC", "result": 2, "unit": "µM"},
      {"measurement": "MIC", "setting": "E. coli [7]; isolate ATCC Ecoli, 25922 (first entry)", "result": 2, "unit": "µM"},
      {"measurement": "MIC", "setting": "E. coli [7]; isolate Ecoli,YD461, read-out: MIC", "result": 34, "unit": "µM"},
      {"measurement": "bacterial bioluminescent signal compared to control group", "setting": "[8]", "result": "significantly lower bacterial bioluminescent signal"},
      {"measurement": "MIC (μM) E. coli (mid-log)", "setting": "E. coli [9]", "result": 6.25, "unit": "μM"}
    ]}
  ]
}
